Data from a melting point compilation (Tetko et al.; mined from patent text by program, amines drawn as free bases though some values may be those of a salt).

| melting point | SMILES |
| --- | --- |
| 108 to 109 °C | N#CC1=Cc2ccc(OCc3ccccc3)cc2OC1 |
| 170 °C | N#Cc1ccccc1-c1ccc(CNc2ccnc3ccnn23)cc1 |
| > 250 °C | NCCc1cccc(N2CCN(c3ccc(CCC(=O)O)cc3)C2=O)c1 |
| 150 °C | CCOc1ccc2c(c1)n(-c1ccccc1Cl)c(=O)n2Cc1ccc(NC(=O)N(CC)CC)cc1OC |
| 152 to 165 °C | O=C1C2=NCCCN2c2cc(Cl)c([N+](=O)[O-])cc21 |
| 176 to 190 °C | CCCCC(CC(=O)Nc1cc(C(N)=O)ccc1C(C)(C)C)c1cc(Cl)c(OCCCOC)cc1OC (stereo not drawn) |
| 248 to 252 °C | Nc1ncnc2c1c(-c1cccc3[nH]ncc13)nn2Cc1oc2ccccc2c(=O)c1-c1ccccc1 |
| 153 to 157 °C | CCCS(=O)(=O)c1cccnc1S(N)(=O)=O |
| 150 to 152 °C | O=C(CCl)NN1CCOC(c2ccccc2)(c2ccccc2)CC1 |
| 168 to 169 °C | CC(=O)N1c2c(ccn3cc(C)nc23)C(=O)C(OC(=O)C(C)(C)C)C1c1ccccc1 (stereo not drawn) |
| 208 °C | CCOC(=O)C1=C(C)Nc2nc(N)nc(N3CCOCC3)c2C1c1cccc([N+](=O)[O-])c1 (stereo not drawn) |
| 158 to 159 °C | Nc1ccc2c(c1)NC(=O)C(CCCN1CCN(c3ccc(F)cc3)CC1)O2 (stereo not drawn) |
| 216 to 217 °C | CC(C)(C)OC(=O)Nc1ccc(C#Cc2ccccc2F)cc1NC(=O)CC(=O)c1cccc(C#N)c1 |
| 205 to 207 °C | COc1ccc(Oc2ccc3c(c2)C=C(C(=O)O)C(C(F)(F)F)O3)cc1Cl (stereo not drawn) |
| 130 °C | CN(C)c1nc2[nH]c3c(c(=O)n2n1)SCCC3 |
| 147 to 148 °C | CC1(C)SC(c2ccc([N+](=O)[O-])o2)NC1C(=O)O (stereo not drawn) |
| 181 to 182 °C | COC(=O)C[C@H]1C[C@H](C(=O)O)Nc2cc(Cl)cc(Cl)c21 (relative stereo) |
| 46 to 48 °C | CCCCCCCCCn1ccc(C#N)cc1=O |
| 112 °C | NC(=O)N(O)Cc1cccs1 |
| 166 to 167 °C | CC(C)(C)c1cc(CCc2ccccc2NC(=O)NCCN2CCOCC2)cc(C(C)(C)C)c1O |
| 141 to 143 °C | CCCC(=O)c1ccc(NC(C)=O)cc1 |
| 89 to 92 °C | CCOCn1c(C(F)(F)F)nc2cc(Cl)c(Cl)cc21 |
| 178 to 180 °C | Cc1cccc(C)c1NC(C)C(=O)O (stereo not drawn) |
| 140 °C | COc1ccc(SCn2cc(Cl)cnc2=O)cc1 |
| 160 to 162 °C | Cc1c(CCC(=O)O)ccc2c3ccccc3n(Cc3ccccc3)c12 |

| melting point | SMILES |
| --- | --- |
| 206 to 207 °C | Cc1ccc(-c2c(-c3ccc(S(C)(=O)=O)cc3)[nH]c3ccccc23)cc1C |
| 160 to 162 °C | CNc1ncc(-c2ccc(C)cc2)c(-c2ccc(C)cc2)n1 |
| 108 °C | CCN(CC)CCOc1ccc(Nc2ncc3c(n2)N(c2cccc(CCN)c2)C(=O)N(c2ccc(Cl)cc2Cl)C3)cc1 |
| 125 °C | CC(C)(C)OC(=O)N1CCC[C@H]1COc1cccc2[nH]ncc12 |
| 142 to 143 °C | CC(C)(C)OC(=O)NN(Cc1ccccc1)C[C@H](O)[C@H](Cc1ccccc1)NC(=O)OCc1ccccc1 |
| 243 to 244 °C | O=C(NC=Cc1ccc(O)cc1)c1ccc(Cl)cc1 |
| 83 to 85 °C | COc1ccc(C2Cc3ccccc3C2=O)cc1 (stereo not drawn) |
| 233 to 235 °C | CC1(C)CCC(C)(C)c2cc(-c3ccc(-c4ccccc4)c(-c4ccc(C(=O)O)cc4)c3)ccc21 |
| 131 to 137 °C | CCOC(=O)c1c(Nc2c(C)cccc2C)n[nH]c1C |
| 157 to 160 °C | N#Cc1cc(Cn2cncn2)ccc1-c1ccc(OS(N)(=O)=O)cc1 |
| 167 to 168 °C | CC(Cc1cc(NC(=O)NCc2ccccc2)cc2ccoc12)NC(=O)OC(C)(C)C (stereo not drawn) |
| 145 to 146 °C | Ic1cnn(-c2cccnc2)c1 |
| 118 to 121 °C | CCCCCCCC(=O)N1CCc2nnc(NN=C(C)C)cc2C1 |
| 147 °C | Cc1cc(C2(O)C(=O)N(Cc3ccccc3)c3ccccc32)cc(C)c1O[Si](C)(C)C(C)(C)C (stereo not drawn) |
| 206 to 207 °C | COc1cc(Nc2ncc(C#N)c(-c3ccccc3)n2)cc(OC)c1 |
| 165 to 166 °C | Cn1cc(CNC(=O)c2ccnc(N3CCN(Cc4ccc(F)cc4)C3=O)c2)cn1 |
| 123 to 126 °C | COc1ccccc1OC(=O)C(=O)Oc1ccccc1OC |
| 275 to 276 °C | Cc1cc(O)nc2cc(Br)ccc12 |
| 162 to 164 °C | O=c1ncc(Br)cn1CCC(O)Cl (stereo not drawn) |
| 201 to 203 °C | O=S(=O)(c1ccccc1)N1CCC(Nc2nc(OCC(F)(F)F)nc(-n3ccnc3)n2)CC1 |
| 253 to 254 °C | Cn1ncc(C(=O)N2CCC2)c1C(=O)Nc1ccn2nc(-c3cccnc3)nc2c1 |
| 125 to 126 °C | CN1CCCC(CC(C#N)(Cn2cncn2)c2ccc(Cl)cc2Cl)C1 (stereo not drawn) |
| 235 to 237 °C | CC(C)n1nc(-c2c(Cl)nc(N)nc2-c2ccccc2)ccc1=O |
| 129 to 131 °C | COc1ccc(CCNC(=O)C(=O)NCc2ccncc2)cc1OC1CCCC1 |
| 170 °C | CCSc1ncn(-c2ccc(O)cc2)n1 |

| melting point | SMILES |
| --- | --- |
| 114 to 116 °C | COCC1CN(c2ccc(C3CCC(=O)CC3)cc2)C(=O)O1 (racemic) |
| 148 to 150 °C | N=C(N)c1ccccc1-c1ccccc1 |
| 211 to 212 °C | CCCCNc1c(N)cc(C(=O)O)cc1S(N)(=O)=O |
| 246 to 248 °C | O=C(O)C1=Cc2cc(Cl)c(Oc3ccc([N+](=O)[O-])cc3)cc2OC1C(F)(F)F (stereo not drawn) |
| > 320 °C | N#Cc1ccc2cc3c4c(cccc4c2c1)C(=O)OC3=O |
| 160 to 165 °C | O=C(O)c1cc(-c2ccc3c(c2)CCO3)nn(CC2CC2)c1=O |
| 178 to 180 °C | Nc1sccc1C(=O)c1ccc(Cl)cc1 |
| 156 to 157 °C | COc1ccc(C(=O)NCCCCCCCCCNC(=O)c2ccc(OC)cc2)cc1 |
| 190 to 192 °C | CNS(=O)(=O)/C=C/c1ccc2[nH]cc(C3CCN(C)CC3)c2c1 |
| 203 to 204 °C | O=C(O)Cc1ccc2c(c1)CCc1cccnc1O2 |
| 212 to 213 °C | O=C(Cn1c(=O)n(-c2ccc3c(c2)OCO3)c2ncccc21)N1CCOCC1 |
| > 300 °C | COc1ccc(-c2cc(=O)[nH]c(=O)[nH]2)cc1OC |
| 243 to 244 °C | COc1ccc(C(=O)Oc2ccc(C(=O)O)c(O)c2)cc1C12CC3CC(CC(C3)C1)C2 |
| 148 to 149 °C | COC(=O)c1cc2c(cnn2C)nc1C(=O)OC |
| 48 to 49 °C | CCCCN(CCCC)C(=O)CC1(c2ccc(OCOC)cc2)NCC(c2ccc3c(c2)OCO3)C1C(=O)O (stereo not drawn) |
| 82 to 84 °C | O=C1CCCC(C(Sc2ccccc2)c2ccccc2)O1 (stereo not drawn) |
| 157 to 159 °C | O=C(c1cc(C(F)(F)F)cc(C(F)(F)F)c1)N1CCC2(CC1)C(=O)NCN2c1ccccc1Cl |
| 85 to 86.5 °C | Cc1ccsc1C(=O)Cc1ccccc1[N+](=O)[O-] |
| 143 to 144 °C | Cc1cc(C#N)cc(Oc2nc(Cl)nc(Cl)c2C(C)C)c1 |
| 125 °C | CC(=O)n1cc(Cl)c(-c2cc(Cl)cc(Cl)c2)n1 |
| 106 to 108 °C | CC(=O)N1CCN(c2cncc(Cl)n2)CC1 |
| 158 to 160 °C | NC(=O)n1cc(-c2ccc(Oc3ccc(N)cc3)cc2)cn1 |
| 170 to 174 °C | Nc1ccc([N+](=O)[O-])c(Cl)c1Cl |
| 189 °C | CCc1cc(=O)c2ccc(O)cc2o1 |
| 109 to 111 °C | CCCOc1nc(C(F)(F)C(F)(F)F)cc(=O)n1-c1cc(O)c(Cl)cc1F |

| melting point | SMILES |
| --- | --- |
| 65 to 66 °C | FC(F)(F)c1cc(I)cc(OCc2ccc3ccccc3c2)c1 |
| 259 °C | N#Cc1sc(N)c(C#N)c1Cl |
| 128 °C | Cc1cccc2c1C(=O)C1(CC1)S2 |
| 128 to 129 °C | COC(=O)Oc1c(OC)cc(OC)c2ccccc12 |
| 105 to 109 °C | CCOC(=O)C(=O)C(C#N)c1cccc(Oc2ccccc2)c1 (stereo not drawn) |
| 145 to 147 °C | Cc1ccc(-c2ccc(S(C)(=O)=O)cc2)n1-c1ccc(-c2ccco2)cc1 |
| 37 to 39 °C | CCCC[C@H]1CC[C@H](C(=O)O)CC1 |
| 194 °C | CCN1CC(C(=O)N2CCOCC2)Cc2cccc(CSc3nc4ccccc4[nH]3)c21 (stereo not drawn) |
| 73 °C | COc1ccc(C(=O)Sc2ccccn2)cc1 |
| 92 to 94 °C | COc1cc(CC(=O)NCCCc2ccc(C)c(C)c2)ccc1OCCN1CCNCC1 |
| 301 to 303 °C | O=C1c2ccc(Cl)cc2-n2c1nc1ccccc1c2=O |
| > 300 °C | O=C1C2=C(NC(=O)C3(N2)SCCS3)c2ccccc21 |
| 145 to 147 °C | CC(C)(O)c1ccc(CNC(=O)c2cccnc2Oc2cccc3c2CCC3=O)cc1 |
| 97 to 99 °C | CCOC(=O)C1(CCCN(C)C)CCCCC1(O)c1ccccc1 (stereo not drawn) |
| 157 to 159 °C | CCOc1nc2ccccc2nc1NC(=O)N1CCN(c2cc(Cl)cc(Cl)c2)CC1 |
| 150 °C | COc1ccc2ccc(N3C(=O)c4ccccc4C3CC(=O)CCC(C)C)nc2n1 (stereo not drawn) |
| 134 to 136 °C | CCOc1cc(C(CC(=O)OC)N2C(=O)c3cccc(N)c3C2=O)ccc1OC (stereo not drawn) |
| 50 °C | O=C(Cc1cccc2ccccc12)N1CCC(c2nccc3occc23)CC1 |
| 228 °C | Cc1cc(N)nc(CCc2nc3cc(-c4ccc(F)cc4)cnc3[nH]2)c1 |
| 115 to 116 °C | CCCNC(=O)[C@H](C)C[C@H](O)[C@H](CC1CCCCC1)NC(=O)OC(C)(C)C |
| 82 to 84 °C | CCCCCCCCCCCCCc1cc(C(=O)O)c[nH]1 |
| 118 to 119 °C | CC(=O)Nc1c(C)nn(C)c1C |
| 195 °C | CCCCCCCCCCCCCCCCCCSC(=O)Nc1ccc(NC(=O)NS(=O)(=O)c2ccc(OC)cc2)cc1 |
| 157 to 158 °C | C/C=C/CNC(=O)N1CC(Oc2ccc(C(F)(F)F)cc2)C1 |
| 152 to 153 °C | O=C(c1ccc(O)cc1)c1sc2ccc(O)cc2c1-c1ccccc1 |

| SMILES | melting point |
| --- | --- |
| CCCc1nc(NCCOC(N)=O)nc(N2CCOCC2)n1 | 139 to 140 °C |
| CC1=Cc2ccc(Cl)cc2C(c2ccc([N+](=O)[O-])c(C)c2)=NN1C(=O)NC1CC1 | 221 to 223 °C |
| N#Cc1nn(-c2c(Cl)cc(C(F)(F)F)cc2Cl)c(Br)c1O | 145 to 151 °C |
